Values joined by “and” are separate entries in the source; they are usually repeats but may differ in a detail not shown here. Equal entries are not always repeated.
Target: hemoglobin (Homo sapiens, UniProt P68871+P69905)
Test: Stability of hemoglobin in samples preserved at 37° C. in preservation solution containing no haptoglobin, Hb measured by latex agglutination method (Examples 8, 9 and Table 10)
Conditions: for Hb concentration / Recovery ratio with respect to Hb after 0 days: no phenylboronic acid, sugar 100 mmol/L; for recovery ratio of hemoglobin in the sample: sugar further added to phenylboronic acid 0.5 mmol/L, no haptoglobin, Feces 1, Feces 2, Feces 3
Description: Preservation solutions were prepared with the addition of 40 mmol/L HEPES (pH 6.8), 0.1% BSA, 0.1% NaN3, and 0 to 2.5 mmol/L phenylboronic acid. […] Samples obtained by adding hemoglobin-added fecal specimens to the preservation solutions so that the fecal concentration would be 0.5% were preserved at 37° C. for 0, 16, 38, and 62 hours. The fecal specimens were added with hemoglobin having an amount such that the hemoglobin concentration in the samples would be about 300 μg/L. Instead of the fecal specimens to which hemoglobin was added, samples containing no fecal specimens, in which hemoglobin was added to the preservation solutions so that the hemoglobin concentration in the samples would be 300 μg/L, were similarly preserved. The hemoglobin (Hb) concentrations (μg/L) in the preserved samples were measured by the latex agglutination method using the same measurement reagent and measurement device as in Example 1.
The concentration of phenylboronic acid in the preservation solutions of Example 8 was fixed to 0.5 mmol/L, preservation solutions to which sorbitol or sucrose was further added at 10 to 250 mmol/L or trehalose, glucose, fructose, or mannitol was further added at 50 to 100 mmol/L were prepared, and testing was conducted in the same manner as in Example 8. In addition, preservation solutions to which the phenylboronic acid was added but no sugar was added were prepared, preservation solutions to which the phenylboronic acid and sugar were not added were prepared for the comparative examples, and testing was conducted in the same manner.
For comparative examples, preservation solutions to which no arylboronic acid was added were prepared, and testing was conducted in the same manner.

hemoglobin, sequence (P69905 2-142): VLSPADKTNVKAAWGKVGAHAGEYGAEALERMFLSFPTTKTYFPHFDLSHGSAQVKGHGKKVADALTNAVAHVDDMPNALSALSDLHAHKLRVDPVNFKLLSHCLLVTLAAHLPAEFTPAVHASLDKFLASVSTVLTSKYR
hemoglobin, sequence (P68871 2-147): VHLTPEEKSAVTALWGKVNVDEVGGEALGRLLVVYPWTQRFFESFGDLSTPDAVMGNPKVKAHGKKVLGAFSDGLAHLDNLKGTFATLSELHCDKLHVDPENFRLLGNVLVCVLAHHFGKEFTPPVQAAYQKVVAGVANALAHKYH

Compound	Hb concentration (Feces 1, 0 h at 37° C.) [µg/L]	Recovery ratio with respect to Hb after 0 days (Feces 1, 0 h at 37° C.) [%]	Hb concentration (Feces 1, 16 h at 37° C.) [µg/L]	Recovery ratio with respect to Hb after 0 days (Feces 1, 16 h at 37° C.) [%]	Hb concentration (Feces 1, 38 h at 37° C.) [µg/L]	Recovery ratio with respect to Hb after 0 days (Feces 1, 38 h at 37° C.) [%]	Hb concentration (Feces 1, 62 h at 37° C.) [µg/L]	Recovery ratio with respect to Hb after 0 days (Feces 1, 62 h at 37° C.) [%]	Hb concentration (Feces 2, 0 h at 37° C.) [µg/L]	Recovery ratio with respect to Hb after 0 days (Feces 2, 0 h at 37° C.) [%]	Hb concentration (Feces 2, 16 h at 37° C.) [µg/L]	Recovery ratio with respect to Hb after 0 days (Feces 2, 16 h at 37° C.) [%]	Hb concentration (Feces 2, 38 h at 37° C.) [µg/L]	Recovery ratio with respect to Hb after 0 days (Feces 2, 38 h at 37° C.) [%]	Hb concentration (Feces 2, 62 h at 37° C.) [µg/L]	Recovery ratio with respect to Hb after 0 days (Feces 2, 62 h at 37° C.) [%]	Hb concentration (No feces, 0 h at 37° C.) [µg/L]	Recovery ratio with respect to Hb after 0 days (No feces, 0 h at 37° C.) [%]	Hb concentration (No feces, 16 h at 37° C.) [µg/L]	Recovery ratio with respect to Hb after 0 days (No feces, 16 h at 37° C.) [%]	other results
O=C(CO)[C@@H](O)[C@H](O)[C@H](O)CO [Fructose, fructose]	281	100	134	48	35	12	0	0	268	100	60	22	1	0	0	0	284	100	246	86	Hb concentration (Feces 3, 0 h at 37° C.): 263 µg/L and 269 µg/L; Recovery ratio with respect to Hb after 0 days (Feces 3, 0 h at 37° C.): 100%; Hb concentration (Feces 3, 16 h at 37° C.): 51 µg/L and 57 µg/L; Recovery ratio with respect to Hb after 0 days (Feces 3, 16 h at 37° C.): 19% and 21%; Hb concentration (Feces 3, 38 h at 37° C.): 0 µg/L; Recovery ratio with respect to Hb after 0 days (Feces 3, 38 h at 37° C.): 0%; Hb concentration (Feces 3, 62 h at 37° C.): 0 µg/L; Recovery ratio with respect to Hb after 0 days (Feces 3, 62 h at 37° C.): 0%; Hb concentration (No feces, 38 h at 37° C.): 233 µg/L; Recovery ratio with respect to Hb after 0 days (No feces, 38 h at 37° C.): 82%; Hb concentration (No feces, 62 h at 37° C.): 230 µg/L; Recovery ratio with respect to Hb after 0 days (No feces, 62 h at 37° C.): 81%; recovery ratio of hemoglobin in the sample: further improved
OC[C@@H](O)[C@@H](O)[C@H](O)[C@H](O)CO [Mannitol, mannitol]	276	100	131	48	29	10	1	0	266	100	55	21	1	0	0	0	281	100	254	91	Hb concentration (No feces, 38 h at 37° C.): 237 µg/L; Recovery ratio with respect to Hb after 0 days (No feces, 38 h at 37° C.): 84%; Hb concentration (No feces, 62 h at 37° C.): 235 µg/L; Recovery ratio with respect to Hb after 0 days (No feces, 62 h at 37° C.): 84%; recovery ratio of hemoglobin in the sample: further improved
